Results taken from the supplement of paper PMC10307832.

Assays:
Test in all cases: relative viability (nuclei count vs DMSO), 5 days (fraction); higher = more cells survive
[1] = compound: CCN(CCO)CCCC(C)Nc1ccnc2cc(Cl)ccc12 [Hydroxychloroquine] + C[C@@H](Oc1cc(-c2cnn(C3CCNCC3)c2)cnc1N)c1c(Cl)ccc(F)c1Cl [Crizotinib] (partner 1 µM)
How it was run: (§1)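 A single step with final 0.05% Triton X-100, 1% formaldehyde and 1 ug/ml Hoechst fixed the cells and stained nuclei 5 days after treatment. Lung cancer cell lines in 1536-well plates had been treated by pin tool the day after seeding with one drug alone or a fixed anchor-drug dose plus five library-drug doses (not always all listed) in √10 steps, and nuclei were counted on 4× images. Relative viability is the ratio of nuclei in treated wells to nuclei in vehicle wells, taken as the median of duplicate plates.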

[2] = compound: CCN(CCO)CCCC(C)Nc1ccnc2cc(Cl)ccc12 [Hydroxychloroquine] + O=C(CCCCCCC(=O)Nc1ccccc1)NO [Vorinostat] (partner 1 µM)
How it was run: as §1

[3] = compound: CCN(CCO)CCCC(C)Nc1ccnc2cc(Cl)ccc12 [Hydroxychloroquine] + CC1(C)CCC(c2ccc(Cl)cc2)=C(CN2CCN(c3ccc(C(=O)NS(=O)(=O)c4ccc(N[C@H](CCN5CCOCC5)CSc5ccccc5)c(S(=O)(=O)C(F)(F)F)c4)cc3)CC2)C1 [Navitoclax] (partner 0.5 µM)
How it was run: as §1

[4] = compound: CCN(CCO)CCCC(C)Nc1ccnc2cc(Cl)ccc12 [Hydroxychloroquine] + Cc1cc(Nc2cc(N3CCN(C)CC3)nc(Sc3ccc(NC(=O)C4CC4)cc3)n2)n[nH]1 [Tozasertib] (partner 0.1 µM)
How it was run: as §1

Cell Line	relative viability ([1]; first compound 0.5 µM)	relative viability ([1]; first compound 1.581 µM)	relative viability ([1]; first compound 5 µM)	relative viability ([1]; first compound 15.81 µM)	relative viability ([1]; first compound 50 µM)	relative viability ([2]; first compound 0.5 µM)	relative viability ([2]; first compound 1.581 µM)	relative viability ([2]; first compound 5 µM)	relative viability ([2]; first compound 15.81 µM)	relative viability ([2]; first compound 50 µM)	relative viability ([3]; first compound 1.581 µM)	relative viability ([3]; first compound 5 µM)	relative viability ([3]; first compound 15.81 µM)	relative viability ([3]; first compound 50 µM)	relative viability ([4]; first compound 0.5 µM)	relative viability ([4]; first compound 1.581 µM)	relative viability ([4]; first compound 5 µM)	relative viability ([4]; first compound 15.81 µM)	relative viability ([4]; first compound 50 µM)	relative viability ([3]; first compound 0.5 µM)
NCI-H441	0.624	0.824	0.92	0.734	0.663	0.734	0.677	0.781	1.07	0.693	0.767	0.52	0.707	0.671	0.759	0.578	0.61	0.879	0.591	
201T	1.02	1	1.07	0.978	0.821	0.954	0.943	1.02	0.929	1.07	1.19	1.19	1.19	1.22	0.941	0.954	0.951	0.966	1.08	1.22
ChaGo-K-1	1.05	1.14	1.16	1.51	1.24	0.806	0.785	0.778	0.759	0.711	0.685	0.687	1.06	1	0.224	0.18	0.222	0.228	0.233	1.22
NCI-H1650	0.92	0.903	0.999	1.01	1.04	0.48	0.593	0.634	0.663	0.608	1.06	1.24	1.04	1.29	0.466	0.318	0.483	0.419	0.346	1.06
LOU-NH91	0.726	0.727	0.742	0.739	0.741	0.89	0.72	0.88	0.933	0.868	0.543	0.742	0.676	0.826	0.651	0.6	0.687	0.692	0.723	0.679
HOP-62	0.954	0.836	0.843	1.05	0.744	0.584	0.628	0.573	0.574	0.69	1.13	1.1	1.03	1.13	0.365	0.316	0.38	0.43	0.413	0.962
NCI-H1915	0.953	0.935	0.937	0.982	1.01	0.521	0.456	0.48	0.549	0.5	0.773	0.84	0.831	0.76	0.425	0.411	0.428	0.464	0.439	0.783
NCI-H3122	0.283	0.275	0.275	0.252	0.279	1.04	1.13	1.03	1.06	1.19	0.994	1.01	1.04	1.03	0.434	0.368	0.397	0.456	0.505	1.03
